In ChEMBL document CHEMBL4118267, “Access to new highly potent antileukemia, antiviral and antimalarial agents via hybridization of natural products (homo)egonol, thymoquinone and artemisinin” (Bioorg Med Chem, 2018):
pEC50: −log10 of the molar value.

Key:
CCRF-CEM = assay: Cytotoxicity against human CCRF-CEM cells assessed as reduction in cell viability after 72 hrs by resazurin dye based assay; type: functional; conditions: for pEC50: Homo sapiens, CCRF-CEM, 72 h, read-out: EC50
Human betaherpesvirus 5 [1] = assay: Antiviral activity against GFP-fused Human cytomegalovirus AD169 infected in primary HFF; type: functional, organism-based; conditions: Human betaherpesvirus 5, AD169, HFF
ADR5000 cell line [2] = assay: Potency index, ratio of doxorubicin EC50 to compound EC50 for human CEM/ADR5000 cells over-expressing P-gp; type: functional
ADR5000 cell line [3] = assay: Cytotoxicity against human CEM/ADR5000 cells over-expressing P-gp assessed as reduction in cell viability after 72 hrs by resazurin dye based assay; type: functional; conditions: for pEC50: Homo sapiens, ADR5000, 72 h, read-out: EC50
Plasmodium falciparum [4] = assay: Antimalarial activity against Plasmodium falciparum 3D7 infected in human erythrocytes after 72 hrs by SYBR green dye fluorescence assay; type: functional, organism-based; conditions: 3D7, 72 h
Human betaherpesvirus 5 [5] = assay: Potency index, ratio of gancyclovir EC50 to compound EC50 for GFP-fused Human cytomegalovirus AD169 infected in primary HFF; type: functional
Plasmodium falciparum [6] = assay: Potency index, ratio of artesunic acid EC50 to compound EC50 for Plasmodium falciparum 3D7 infected in human erythrocytes; type: functional

SMILES	pEC50 (CCRF-CEM)	pEC50 (Human betaherpesvirus 5 [1])	Ratio EC50 (ADR5000 cell line [2])	pEC50 (ADR5000 cell line [3])	EC50 (CCRF-CEM; ccrf-cem)	pEC50 (Plasmodium falciparum [4])	EC50 (ADR5000 cell line [3]; adr5000)	Ratio EC50 (Human betaherpesvirus 5 [5])	Ratio EC50 (Plasmodium falciparum [6])
COc1cc(CCCOC(=O)CCC(=O)O[C@@H]2O[C@@H]3O[C@@]4(C)CC[C@H]5[C@H](C)CC[C@@H]([C@H]2C)[C@@]35OO4)cc2cc(-c3ccc4c(c3)OCO4)oc12	6.74	6.06	<=104	5.95	–	–	–	–	–
COc1ccc(-c2cc3cc(CCCO)cc(OC)c3o2)cc1OC	–	5.89	–	–	Not Active	4.58	Not Active	–	–
COc1ccc(-c2cc3cc(CCCO[C@H]4O[C@@H]5O[C@@]6(C)CC[C@H]7[C@H](C)CC[C@@H]([C@H]4C)[C@@]57OO6)cc(OC)c3o2)cc1OC	7.14	6.89	<=104	6.20	–	8.19	–	20	–
COc1cc(CCCO[C@H]2O[C@@H]3O[C@@]4(C)CC[C@H]5[C@H](C)CC[C@@H]([C@H]2C)[C@@]35OO4)cc2cc(-c3ccc4c(c3)OCO4)oc12	7.00	6.77	<=104	6.40	–	7.55	–	–	–
COc1cc(CCCOC(=O)C[C@H]2O[C@@H]3O[C@@]4(C)CC[C@H]5[C@H](C)CC[C@@H]([C@H]2C)[C@@]35OO4)cc2cc(-c3ccc4c(c3)OCO4)oc12	6.25	6.62	<=104	6.24	–	7.88	–	–	–
C[C@H]1[C@H](OC(=O)CCC(=O)OCC#CCOC(=O)CCC(=O)O[C@@H]2O[C@@H]3O[C@@]4(C)CC[C@H]5[C@H](C)CC[C@@H]([C@H]2C)[C@@]35OO4)O[C@@H]2O[C@@]3(C)CC[C@H]4[C@H](C)CC[C@@H]1[C@@]24OO3	–	6.03	–	–	–	8.42	–	6	2
COc1cc(CC/C=N/C2=C(C)C(=O)C=C(C(C)C)C2=O)cc2cc(-c3ccc4c(c3)OCO4)oc12	4.36	–	<=104	4.76	–	5.92	–	–	–
COc1cc(CCCOC(=O)CCCc2ccc(N(CCCl)CCCl)cc2)cc2cc(-c3ccc4c(c3)OCO4)oc12	–	5.54	–	–	–	4.63	–	–	–
C[C@@H]1CC[C@H]2[C@@H](C)C(=O)O[C@@H]3O[C@@]4(C)CC[C@@H]1[C@]32OO4 [ARTEMISININ]	4.43	–	–	4.57	–	–	–	–	–
C[C@H]1[C@@H](O)O[C@@H]2O[C@@]3(C)CC[C@H]4[C@H](C)CC[C@@H]1[C@@]24OO3 [ARTENIMOL]	7.07	< 5.00	–	6.58	–	8.62	–	–	–
C[C@H]1[C@H](OC(=O)CCC(=O)O)O[C@@H]2O[C@@]3(C)CC[C@H]4[C@H](C)CC[C@@H]1[C@@]24OO3 [ARTESUNATE]	7.16	5.27	–	6.72	–	8.01	–	–	–
CCN(CC)CCCC(C)Nc1ccnc2cc(Cl)ccc12 (stereo unspecified) [CHLOROQUINE]	–	–	–	–	–	8.01	–	–	–
COc1cccc2c1C(=O)c1c(O)c3c(c(O)c1C2=O)C[C@@](O)(C(=O)CO)C[C@@H]3O[C@H]1C[C@H](N)[C@H](O)[C@H](C)O1 [DOXORUBICIN]	7.82	–	–	4.38	–	–	–	–	–
COc1cc(CCCO)cc2cc(-c3ccc4c(c3)OCO4)oc12 [EGONOL]	4.61	5.62	–	4.57	–	5.12	–	–	–
Nc1nc2c(ncn2COC(CO)CO)c(=O)[nH]1 [GANCICLOVIR]	–	5.59	–	–	–	–	–	–	–
CC1=CC(=O)C(C(C)C)=CC1=O [THYMOQUINONE]	6.52	< 5.00	–	6.52	–	< 4.10	–	–	–
